Experimental data: patent publication US8685974B2 (Bayer CropScience AG, priority 2009, dated 2014)
Read-outs that look alike come from different tables or passages of the source. Marks after values point to notes of the source that are not given here.

Columns and labels:
Leptosphaeria nodorum = Leptosphaeria nodorum test (wheat) / protective; type: in vivo; details: 500 ppm active compound, protective spray, evaluated 7-9 days after inoculation
Method: Leptosphaeria nodorum Test (Wheat)/Protective
Solvent: 49 parts by weight of N,N-dimethylformamide
Emulsifier: 1 part by weight of alkylaryl polyglycol ether
To produce a suitable preparation of active compound, 1 part by weight of active compound is mixed with the stated amounts of solvent and emulsifier, and the concentrate is diluted with water to the desired concentration.
To test for protective activity, young wheat plants are sprayed with the preparation of active compound at the stated application rate. […] The plants are then placed in a greenhouse at 90% rel. atmospheric humidity and a temperature of 22° C.
Evaluation is carried out 7-9 days after the inoculation. 0% means an efficacy which corresponds to that of the control, whereas an efficacy of 100% means that no infection is observed.

Alternaria solani = assay: Alternaria test (tomato) / protective; type: in vivo; details: 500 ppm active compound, protective spray, evaluated 7 days after inoculation
In short: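 Efficacy scored 7 days after inoculation, where 100% means no infection and 0% matches the untreated control. Test plants were young tomatoes given a protective spray at the stated rate, compound dissolved in DMF plus emulsifier and diluted with water. Incubation at 20° C, 96% relative humidity.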

Pyrenophora teres = assay: In vivo test on Pyrenophora teres (barley net blotch); details: dose of 500 ppm; barley plants; grading 12 days after contamination
In short: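 Scoring is done 12 days after spore spraying (12,000 spores/ml, from 12-day-old culture), relative to water-treated controls. Inoculation follows by 24 h a preventive spray of the aqueous-diluted formulation onto 1-leaf Plaisant barley raised at 12° C.; infection holds 24 h at about 20° C./100% RH, then 12 days at 80% RH.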

Fusarium graminearum = type: cell-based; details: 50 μM; for % Inhibition of DON/AcDON at 50 μM: 7 days at 28° C.

| SMILES | efficacy (Leptosphaeria nodorum) | efficacy (Alternaria solani) | log p (pH 2.7) | protection (Pyrenophora teres) | also measured |
| --- | --- | --- | --- | --- | --- |
| CC(=O)Nc1cc(-c2cn(CC(C)C)nc2-c2ccc(Cl)s2)cc[n+]1[O-] [Example 80] | 70% | 94% |  |  | log p (pH 2.3): 2.86^[a] |
| CC(C)Cn1cc(-c2ccnc(N)n2)c(-c2ccc(Cl)s2)n1 [Example 95] | 80% | 70% |  |  | log p (pH 2.3): 2.35^[a] |
| COc1ccc(Cn2cc(-c3ccncc3)c(-c3ccc(Cl)s3)n2)cc1 [Example 104] | 80% |  | 2.74^[b] |  |  |
| Cc1c(-c2ccncc2)c(-c2ccc(Cl)s2)nn1C(C)C [Example 145] | 95% | 100% | 2.07^[b] | 100% | log p (pH 7.8): 3.8^[c]; |
| CCn1nc(-c2ccc(Cl)s2)c(-c2ccncc2)c1C [Example 146] | 95% | 95% | 1.61^[b] | 100% | log p (pH 7.8): 3.08^[c]; |
| CCC(=O)Nc1cc(-c2cn(CC)nc2-c2cccs2)ccn1 [Example 149, N-{4-[1-Ethyl-3-(2-thienyl)-1H-pyrazol-4-yl]pyridin-2-yl}propanamide] |  |  |  |  | chromatographic logP (physchem; pH 2.7): 1.65; chromatographic logP (physchem; pH 7.8): 2.26 |
| CCC(=O)Nc1cc(-c2c(-c3ccc(Cl)s3)nn(C(C)C)c2C)ccn1 [Example 168] | 90% | 90% | 3.34^[b] | 90% | log p (pH 7.8): 3.76^[c]; |
| CCC(=O)Nc1cc(-c2c(-c3ccc(Cl)s3)nn(CC)c2C)ccn1 [Example 169] | 80% | 95% | 2.71^[b] | 95% | log p (pH 7.8): 3.1^[c]; |
| CCC(=O)Nc1cc(-c2c(-c3ccc(Cl)s3)nn(C)c2C)ccn1 [Example 170] | 90% | 90% | 2.32^[b] | 80% | log p (pH 7.8): 2.68^[c]; |
| CC(=O)N(C(C)=O)c1nccc(-c2cn(C(C)C)nc2-c2ccc(Cl)s2)n1 [Example 171] | 89% |  |  | 95% | log p (pH 2.3): 3.33^[a] |
| CCC(=O)Nc1nccc(-c2cn(C(C)C)nc2-c2ccc(Cl)s2)n1 [Example 172] | 89% |  |  | 100% | log p (pH 2.3): 3.04^[a] |
| CCC(C)n1cc(-c2ccnc(NC(=O)C(C)C)n2)c(-c2ccc(Cl)s2)n1 (stereo not shown) [Example 173] | 89% |  |  | 95% | log p (pH 2.3): 3.72^[a] |
| CCC(=O)Nc1cc(-c2cn(C(C)C)nc2-c2cccs2)ccn1 [Example 175] | 70% | 80% | 2.01^[b] | 90% | log p (pH 7.8): 2.61^[c]; |
| CC(C)n1cc(-c2ccnc(NC3COC3)n2)c(-c2ccc(Cl)s2)n1 [Example 179] | 80% | 80% |  | 90% | log p (pH 2.3): 2.7^[a] |
| C#CCNc1nccc(-c2cn(C(C)C)nc2-c2ccc(Cl)s2)n1 [Example 180] | 70% |  |  | 80% | log p (pH 2.3): 3.25^[a] |
| CC(C)Nc1nccc(-c2cn(C(C)C)nc2-c2ccc(Cl)s2)n1 [Example 181] | 70% |  |  | 80% | log p (pH 2.3): 2.82^[a] |
| CCC(=O)Nc1nccc(-c2cn(C(C)CC)nc2-c2ccc(Cl)s2)n1 (stereo not shown) [Example 190] | 70% | 80% |  | 95% | log p (pH 2.3): 3.37^[a] |
| CCC(=O)Nc1cc(-c2cn(C(C)CC)nc2-c2ccc(Cl)s2)ccn1 (stereo not shown) [Example 225] | 70% | 95% | 3.19^[b] | 95% | % Inhibition of fungal growth at 50 μM (Fusarium graminearum): 87%; % Inhibition of DON/AcDON at 50 μM (Fusarium graminearum): 99% |
| CCC(C)n1cc(-c2ccnc(NC(=O)C3CC3)c2)c(-c2ccc(Cl)s2)n1 (stereo not shown) [Example 226] | 80% | 90% | 3.35^[b] | 100% | % Inhibition of fungal growth at 50 μM (Fusarium graminearum): 93%; % Inhibition of DON/AcDON at 50 μM (Fusarium graminearum): 99% |
| CCC(C)n1cc(-c2ccnc(NC(=O)C(C)C)c2)c(-c2ccc(Cl)s2)n1 (stereo not shown) [Example 234] | 80% | 90% | 3.63^[b] | 95% | % Inhibition of fungal growth at 50 μM (Fusarium graminearum): 45%; % Inhibition of DON/AcDON at 50 μM (Fusarium graminearum): 96% |

| SMILES | efficacy (Leptosphaeria nodorum) | efficacy (Alternaria solani) | log p (pH 2.7) | protection (Pyrenophora teres) | also measured |
| --- | --- | --- | --- | --- | --- |
| CC(C)n1cc(-c2ccnc(NC(=O)C3CCC3)c2)c(-c2ccc(Cl)s2)n1 [Example 243] | 90% | 90% | 3.37^[b] | 95% | % Inhibition of fungal growth at 50 μM (Fusarium graminearum): 31%; % Inhibition of DON/AcDON at 50 μM (Fusarium graminearum): 99% |
| CC(C)n1cc(-c2ccnc(NC(=O)N(C)C)c2)c(-c2ccc(Cl)s2)n1 [Example 248] | 90% | 90% | 1.97^[b] | 100% |  |
| CCn1cc(-c2ccnc(NC(=O)C3CCC3)c2)c(-c2ccc(Cl)s2)n1 [Example 269] | 70% |  | 2.92^[b] | 80% | % Inhibition of fungal growth at 50 μM (Fusarium graminearum): 58%; % Inhibition of DON/AcDON at 50 μM (Fusarium graminearum): 87% |
| Cn1cc(-c2ccnc(NC(=O)Cc3ccccc3)c2)c(-c2ccc(Cl)s2)n1 [Example 277] | 70% | 90% | 3.06^[b] | 90% |  |
| CCC(C)C(=O)Nc1cc(-c2cn(C)nc2-c2ccc(Cl)s2)ccn1 (stereo not shown) [Example 280] | 80% | 90% | 2.71^[b] | 90% |  |
| CCC(C)n1cc(-c2ccnc(Cl)c2)c(-c2ccc(Cl)s2)n1 (stereo not shown) [Example 318] | 70% |  | 4.89^[b] |  |  |
| FC(F)Cn1cc(-c2ccncc2)c(-c2ccc(Br)s2)n1 [Example 384] | 90% | 94% | 1.67^[b] |  | logP value of the minor isomer (pH 2.7): (1.51); % Inhibition of fungal growth at 50 μM (Fusarium graminearum): 100%; % Inhibition of DON/AcDON at 50 μM (Fusarium graminearum): 99% |
| CC1(Cn2cc(-c3ccncc3)c(-c3ccc(Br)s3)n2)CC1(Cl)Cl (stereo not shown) [Example 386] | 80% | 89% | 2.75^[b] |  | logP value of the minor isomer (pH 2.7): (2.50); % Inhibition of fungal growth at 50 μM (Fusarium graminearum): 0%; % Inhibition of DON/AcDON at 50 μM (Fusarium graminearum): 99% |
| FCCn1cc(-c2ccncc2)c(-c2ccc(Br)s2)n1 [Example 388] | 80% | 100% | 1.49^[b] |  | logP value of the minor isomer (pH 2.7): (1.34); % Inhibition of fungal growth at 50 μM (Fusarium graminearum): 100%; % Inhibition of DON/AcDON at 50 μM (Fusarium graminearum): 99% |
| CCC(CC)n1cc(-c2ccncc2)c(-c2ccc(Br)s2)n1 [Example 392] | 70% | 100% | 2.39^[b] |  | logP value of the minor isomer (pH 2.7): (2.22); % Inhibition of fungal growth at 50 μM (Fusarium graminearum): 97%; % Inhibition of DON/AcDON at 50 μM (Fusarium graminearum): 99% |
| CC(=O)N(C(C)=O)c1cc(-c2cn(C(C)C)nc2-c2ccc(Cl)s2)ccn1 [N-Acetyl-N-{4-[3-(5-chloro-2-thienyl)-1-isopropyl-1H-pyrazol-4-yl]pyridin-2-yl}acetamide] |  |  |  |  | log p (physchem; pH 2.7): 3.33 |
| CC(=O)N(C(C)=O)c1nccc(-c2cn(C(C)C)nc2-c2ccc(Cl)s2)n1 [N-Acetyl-N-{4-[3-(5-chloro-2-thienyl)-1-isopropyl-1H-pyrazol-4-yl]pyrimidin-2-yl}acetamide] |  |  |  |  | log p (physchem; pH 2.7): 3.33 |
| CC(C)n1cc(-c2ccnc(NCc3ccccc3)n2)c(-c2ccc(Cl)s2)n1 [N-Benzyl-4-[3-(5-chloro-2-thienyl)-1-isopropyl-1H-pyrazol-4-yl]pyrimidin-2-amine] |  |  |  |  | log p (physchem; pH 2.7): 3.81 |
| CC(C)Nc1nccc(-c2cn(C(C)C)nc2-c2ccc(Cl)s2)n1 [N-Isopropyl-4-[3-(5-chloro-2-thienyl)-1-isopropyl-1H-pyrazol-4-yl]pyrimidin-2-amine] |  |  |  |  | log p (physchem; pH 2.7): 2.82 |
| CCC(=O)Nc1cc(-c2cn(CC)nc2-c2cccs2)ccn1 [N-{4-[1-Ethyl-3-(2-thienyl)-1H-pyrazol-4-yl]pyridin-2-yl}propanamide] |  |  |  |  | log p (physchem; pH 2.7): 1.65 |
| CCC(C)n1cc(-c2ccnc(NC(C)=O)c2)c(-c2ccc(Cl)s2)n1 (stereo not shown) [N-{4-[1-sec-butyl-3-(5-chloro-2-thienyl)-1H-pyrazol-4-yl]pyridin-2-yl}acetamide] |  |  |  |  | log p (physchem; pH 2.7): 2.94 |
| CC(=O)Nc1nccc(-c2cn(C(C)C)nc2-c2ccc(Cl)s2)n1 [N-{4-[3-(5-Chloro-2-thienyl)-1-isopropyl-1H-pyrazol-4-yl]pyrimidin-2-yl}acetamide] |  |  |  |  | log p (physchem; pH 2.7): 2.59 |
| CC(=O)Nc1cc(-c2cn(CC(C)C)nc2-c2ccc(Cl)s2)cc[n+]1[O-] [N-{4-[3-(5-chloro-2-thienyl)-1-isobutyl-1H-pyrazol-4-yl]-1-oxidopyridin-2-yl}acetamide] |  |  |  |  | log p (physchem; pH 2.7): 2.86 |
| CC(C)Cn1cc(-c2ccnc(N(C(=O)C3CC3)C(=O)C3CC3)c2)c(-c2ccc(Cl)s2)n1 [N-{4-[3-(5-chloro-2-thienyl)-1-isobutyl-1H-pyrazol-4-yl]pyridin-2-yl}-N-(cyclopropylcarbonyl)cyclopropanecarboxamide] |  |  |  |  | log p (physchem; pH 2.7): 4.75 |
